Results published in patent EP2353599A1, “8-hydroxyquinolines as inhibitors of cathepsin B” (University of Ljubljana, priority 2010, dated 2011).

Tests used:
cathepsin H = molecular target: T1, cathepsin H (Homo sapiens, UniProt P09668); assay: Selectivity: Ki against cathepsin H, substrate R-AMC; format: biochemical
T1 sequence (P09668 98-335): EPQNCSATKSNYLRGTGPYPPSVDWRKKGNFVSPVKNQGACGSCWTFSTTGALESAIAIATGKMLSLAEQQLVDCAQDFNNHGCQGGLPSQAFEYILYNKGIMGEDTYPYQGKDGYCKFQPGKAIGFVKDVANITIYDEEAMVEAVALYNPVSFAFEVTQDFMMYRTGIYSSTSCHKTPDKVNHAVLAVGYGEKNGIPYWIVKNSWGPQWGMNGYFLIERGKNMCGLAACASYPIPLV
Procedure: (§1) Activation buffer used with cathepsin L was 100 mM acetate buffer, pH 5.5 with 0.1 % PEG, 5 mM DTT and 1.5 mM EDTA and with cathepsin H was 100 mM phosphate buffer, pH 6.8 with 0.1 % PEG, 5 mM DTT and 1.5 mM EDTA. Table II. Ki values for 5-nitro-8-hydroxyquinoline determined against cathepsins B, L and H.

MCF-10A neoT cells [1] = assay: Three-dimensional in vitro invasion model based on spheroids; format: cell-based; settings: 10 µM, Matrigel
Procedure: The ability of 5-nitro-8-hydroxyquinoline to inhibit tumour cell invasion was also tested in a three-dimensional in vitro invasion model based on spheroids. Multicellular tumour spheroids were prepared according to hanging drop method (Kelm JM, Timmins NE, Brown CJ, Fussenegger M, Nielsen LK: Method for generation of homogeneous multicellular tumour spheroids applicable to a wide variety of cell types. Biotechnol Bioeng 2003, 83:173-80.). Drops (20 µl) of MCF-10A neoT cell suspension ([…]) were placed onto the lids of 10 cm dishes which were inverted over dishes containing 10 ml of PBS. Upon inversion of the tray the cells accumulated at the free liquid-air interface in this way forming spheroids after sufficient sedimentation time, in our case 6 days. Wells of a 24-well plate were filled with 400 µl of Matrigel (5mg/ml) containing the 5-nitro-8-hydroxyquinoline at the final concentration of 10 µM. After 15 min incubation at 37 °C 1 ml of medium with the test compound (10 µM) was placed on top of Matrigel. Spheroids were then carefully plated into the wells and incubated at 37 °C in a humidified atmosphere containing 5 % CO2. Images of spheroids were obtained using an Olympus IX 81 motorized inverted microscope and CellR software.

Cathepsin B = Cathepsin B (Homo sapiens, UniProt P07858); assay: Reversibility with active site probe DCG-04 (labelling, SDS-PAGE, blot); format: binding; settings: 0.1, 1, 10 and 50 µM inhibitor, 1 h, then 2 µM DCG-04
Description: Second, the reversibility of 5-nitro-8-hydroxyquinoline was also studied with the active site probe DCG-04. DCG-04 is a derivative of an irreversible epoxysuccinic inhibitor of cysteine proteases E-64 with an additional biotin moiety which enables detection of covalently modified proteases with labelling intensity correlating with enzymatic activity (Greenbaum D, Medzihradszky KF, Burlingame A, Bogyo M: Epoxide electrophiles as activity-dependent cysteine protease profiling and discovery tools. Chem Biol 2000, 7: 569-81.). 1 µg of recombinant cathepsin B in 50 mM Tris, pH 5.5 containing 1 mM DTT, 5 mM MgCl2 and 250 mM sucrose was incubated with 0.1, 1, 10 in 50 µM 5-nitro-8-hydroxyquinoline (diluted from 10 mM DMSO stocks) for 1 h at room temperature. Samples were then labelled with 2 µM DCG-04 for an additional h at room temperature. After boiling in reducing sample buffer for 10 min samples were analyzed by 12.5 % SDS-PAGE and transferred to a nitrocellulose membrane. The latter was then blocked with 0.5 % Tween 20 in PBS overnight at 4 °C and incubated with 1 µg/ml streptavidin-horseradish peroxidase in 0.2 % Tween 20 in PBS for 1 h at room temperature. The membrane was washed five times with 0.2 % Tween 20 in PBS and the spots on the membrane were visualized with 0.5 mg/ml 3,3'-diaminobenzidine and 0.0005 % (v/v) H2O2 in 50 mM Tris, pH 7.5. […]

MCF-10A neoT cells [2] = assay: Extracellular DQ-collagen IV degradation, fluorescence intensity in medium; format: cell-based; settings: Homo sapiens, MCF-10A-neoT, 3 h, DQ-collagen IV 5 µg/ml
Procedure: Two experiments were set to differentiate between inhibition of intracellular and extracellular DQ-collagen IV degradation. Inhibition of extracellular DQ-collagen IV degradation was observed by monitoring the fluorescence intensity of degraded DQ-collagen IV in the medium in which MCF-10A neoT cells were grown. 5 × 10^4 MCF-10A neoT cells were plated into wells of a 96-well black plate and were allowed to attach over night. Cells were then incubated with 100 µl PBS containing 5-nitro-8-hydroxyquinoline, CA-074 or CA-074Me (10 µM) and DQ-collagen IV (5 µg/ml) for 3 h. Afterwards, the 80 µl of PBS was transferred into the empty wells and the fluorescence intensity was measured at 495 nm ± 5 nm excitation and 515 nm ± 5 nm emission wavelengths on Tecan Safire^2™. The experiment was performed in 8 parallels and DMSO was used as a control.

cathepsin L = cathepsin L (Homo sapiens, UniProt P07711); assay: Selectivity: Ki against cathepsin L, substrate Z-FR-AMC; format: biochemical
Procedure: as §1

MCF-10A neoT cell line = assay: Millicell Matrigel in vitro tumour cell invasion assay; format: cell-based; settings: Homo sapiens, 24 h, read-out: inhibition of tumour invasion compared to DMSO control
Procedure: To assess the ability of 5-nitro-8-hydroxyquinoline to inhibit tumour cell invasion two independent experiments were used. First, an in vitro invasion model using Millicell Cell culture inserts (12 mm polycarbonate inserts with 12 µm pores) was performed. The bottom sides of 24-wells were coated with 100 µl of fibronectin from bovine plasma (25 µg/ml) and left in a laminar hood to dry. The upper side of Millicell inserts was coated with 100 µl of Matrigel (0.75 mg/ml in serum free medium) and incubated for 1 h at 37 °C. The inserts were then placed in with fibronectin coated wells. The upper compartments of the inserts were filled with 200 µl MCF-10A neoT cell suspension (7.5x10^5/ml) containing 5-nitro-8-hydroxyquinoline (10 µM) in serum free medium and the bottom compartments were filled 500 µl of medium containing 10 µM 5-nitro-8-hydroxyquinoline and 10 % fetal calf serum. After 24 h incubation the bottom sides of wells were washed with 500 µl of PBS and the cells that were attached were detached by 0.05 % trypsin and 0.02 % EDTA in PBS. […] After a 2 h incubation period the absorbance was measured at 490 nm. […] The percentage of cell invasion was calculated as the ratio between the invading cells and the total cell population.

cathepsin L, sequence (P07711 114-333, species assumed): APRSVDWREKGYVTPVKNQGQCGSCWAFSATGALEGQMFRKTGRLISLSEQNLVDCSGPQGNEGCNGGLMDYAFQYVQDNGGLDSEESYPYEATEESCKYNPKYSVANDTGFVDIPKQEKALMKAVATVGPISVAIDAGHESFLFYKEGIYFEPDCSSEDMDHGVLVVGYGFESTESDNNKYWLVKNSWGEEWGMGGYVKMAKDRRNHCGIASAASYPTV

Mechanism of inhibition (cathepsin H): mixed | Ki (cathepsin H; substrate R-AMC, pH 6.8): 220.8 ± 2.1 µM | Mechanism of inhibition (cathepsin L): competitive | Ki (cathepsin L; substrate Z-FR-AMC, pH 5.5): 175 ± 17.1 µM
SMILES: O=[N+]([O-])c1ccc(O)c2ncccc12 [Compound 1, 5-nitro-8-hydroxyquinoline]
inhibition of tumour invasion in three-dimensional spheroid model (MCF-10A neoT cells [1]): completely abrogated the invasive activity at the edge of the spheroid | intensity of spots (DCG-04 labelling) versus DMSO control (Cathepsin B): did not differ significantly from the DMSO control | inhibition at 10 µM (MCF-10A neoT cells [2]): 35.3% | inhibition at 10 µM (MCF-10A neoT cell line): 40.7%
